Source: patent publication US20230226084A1, “NON-INVASIVE METHOD OF TREATING COVID-19 INFECTION” (priority 2022, published 2023)

Test system: COVID-19 infection
Assay type: in vivo
Details: one subject
[1] = confirmed COVID-19, furosemide orally twice daily, 40 mg mornings and 20 mg at 6 hours interval, for 3 days

## NS(=O)(=O)c1cc(C(=O)O)c(NCc2ccco2)cc1Cl [furosemide]
[1]
  Subsidence of symptoms (cough, headache, body ache, fever, breathing difficulties): subsided on the second day
  Total recovery of the subject: totally recovered by night on the third day
After furosemide orally for 3 days
  Infection status per Government hospital certificate, a while after treatment: negative status for the infection
